The values below come from patent US20210355107A1, “MULTI-SUBSTITUTED PYRIDONE DERIVATIVES AND MEDICAL USE THEREOF” (Beijing Yuezhikangtai Biomedicines Co., Ltd., priority 2018, published 2021).

The structures appear in SMILES notation.

This assay concerns EBC-1 cells. Kind of assay: EBC-1 cell proliferation, CellTiter-Glo Luminescent Cell Viability Assay. The following applies: Homo sapiens, 72 h incubation, read-out: IC50 (nM) against EBC-1 cells. Format: cell-based. The procedure:
Test Example 3: Inhibitory Activity of Compounds disclosed herein against EBC-1 Cells
Test method: the inhibitory activity of the compounds against EBC-1 cell proliferation was evaluated using CellTiter-Glo® Luminescent Cell Viability Assay Kit (Promega).
Test procedures: when thawing EBC-1 cells, the cell cryopreservation tube was shaken rapidly in a water bath at 37° C. to thaw the cells in 1 min. The cell suspension after thawing was mixed with RPMI1640 culture medium containing 10% FBS and centrifuged for 5 min at 1000 rpm, and the supernatant was discarded. The cell pellet was suspended in 5 mL of complete culture medium. The suspension was placed in a cell culture flask with a bottom area of 25 cm^2, and cultured in a cell incubator at 37° C./95% humidity/5% CO2. Cell passage was performed when cell confluence reached about 80%. When the cells were passaged, the original cell suspension was directly made uniform by pipetting. 1/6 of the cell suspension was kept, added with 5 mL of new complete culture medium and then made uniform by pipetting. The cell culture flask was then placed in a cell incubator for further culturing. Cell plating was performed when the cell confluence reached about 80% again. With reference to the method for cell passage, 1/6 cell suspension was kept for further culturing when the cells were plated, and the remaining 5/6 of cell suspension was placed in a 15 mL centrifuge tube. Cell viability was detected by trypan blue exclusion using an IC1000 cell counter (Countstar) to ensure that cell viability was above 90%. Cell suspension at a density of 3.33×10^4 viable cells/mL was prepared using complete culture medium, and 90 μL of the cell suspension was added into 96-well cell culture plates, so that the cell density in the cell culture plates (day 0 plate and test compound plate) was 3000 viable cells/well. A control group that contains no cell or compound but only complete culture medium and a control group that contains no compound but cells were set. The cell plates were incubated overnight in a cell incubator. […] 10 μL of the above solution was added into a corresponding cell culture plate to ensure that the initial concentration of the compound was 10 μM, the dilution factor of adjacent concentration was 3.16, and the DMSO content in the cell culture plate was 0.1%. The cell plates were then incubated in the cell incubator for 72 h. During detection, CellTiter-Glo reagent (namely CellTiter-Glo® […] cell viability test reagent, Promega, Cat. No. G7572, Lot. No. 0000310975) was melted, and the cell plate was equilibrated at room temperature for 30 min. The cell plate was added with the CellTiter-Glo reagent at 100 μL per well, and then shaken on a QB-9001 microporous quick shaker (Kylin-Bell) for 5 min to fully lyse the cells. The cell plate was left to stand at room temperature for 20 min to stabilize luminescence signals, and the luminescence value of each well was scanned by a Spectramax M3 multi-functional microplate reader (Molecular Devices) at full wavelength.
Test samples: example compounds of the present invention and cabozantinib (positive control compound).
Data analysis: cell viability was calculated for compounds at various concentrations using the following formula:
Cell viability(%)=(Lumtest compound−Lumculture solution control)/(Lumcell control−Lumculture solution control)×100%,
where Lum refers to the luminescence value of each well of the test compound plate read by the multi-functional microplate reader.
The data were analyzed using GraphPad Prism 7.0 software, fitted with nonlinear S-curve regression to give dose-response curves, and IC50 values were calculated therefrom.
On the technique in general: ATP-based viability assays read luminescence as a measure of living cells.
By IC50 is commonly meant the concentration needed to halve the response being measured. With `CC(C)n1cc(C(=O)Nc2ccc(-c3cc(-c4cnn(C5CCNCC5)c4)cnc3N)c(F)c2)c(=O)c(-c2ccc(F)cc2)c1C#N` [Example 2, N-(4-(2-amino-5-(1-(piperidin-4-yl)-1H-pyrazol-4-yl)pyridin-3-yl)-3-fluorophenyl)-6-cyano-5-(4-fluorophenyl)-1-isopropyl-4-oxo-1,4-dihydropyridine-3-carboxamide], the concentration for half-maximal inhibition (IC50) amounted to 24 nM.
For `CCn1cc(-c2cnc(N)c(-c3ccc(NC(=O)c4cn(C(C)C)c(C#N)c(-c5ccc(F)cc5)c4=O)cc3F)c2)cn1` [Example 3, N-(4-(2-amino-5-(1-ethyl-1H-pyrazol-4-yl)pyridin-3-yl)-3-fluoro-phenyl)-6-cyano-5-(4-fluorophenyl)-1-isopropyl-4-oxo-1,4-dihydropyridine-3-carboxamide], the concentration for half-maximal inhibition (IC50) came out at 22 nM.
The figure for `CC(C)n1cc(C(=O)Nc2ccc(-c3cc(-c4cnn(C)c4)cnc3N)c(F)c2)c(=O)c(-c2ccc(F)cc2)c1C#N` [Example 4, N-(4-(2-amino-5-(1-methyl-1H-pyrazol-4-yl)pyridin-3-yl)-3-fluorophenyl)-6-cyano-5-(4-fluorophenyl)-1-isopropyl-4-oxo-1,4-dihydropyridine-3-carboxamide] is 30 nM; for `CC(C)n1cc(C(=O)Nc2cc(F)c(-c3cc(-c4cnn(C)c4)cnc3N)cc2F)c(=O)c(-c2ccc(F)cc2)c1C#N` [Example 6, N-(4-(2-amino-5-(1-methyl-1H-pyrazol-4-yl)pyridin-3-yl)-2,5-difluorophenyl)-6-cyano-5-(4-fluorophenyl)-1-isopropyl-4-oxo-1,4-dihydropyridine-3-carboxamide] it is 13 nM.
Turning to `CC(C)n1cc(C(=O)Nc2ccc(-c3cc(-c4cnn(C5CCN(C)CC5)c4)cnc3N)c(F)c2)c(=O)c(-c2ccc(F)cc2)c1C#N` [Example 7, N-(4-(2-amino-5-(1-(1-methylpiperidin-4-yl)-1H-pyrazol-4-yl)-pyridin-3-yl)-3-fluorophenyl)-6-cyano-5-(4-fluorophenyl)-1-isopropyl-4-oxo-1,4-dihydro-pyridine-3-carboxamide], the IC50 amounted to 27 nM.
Take `CCn1cc(-c2cnc(N)c(-c3ccc(NC(=O)c4cn(C5CC5)c(C#N)c(-c5ccc(F)cc5)c4=O)cc3F)c2)cn1` [Example 10, N-(4-(2-amino-5-(1-ethyl-1H-pyrazol-4-yl)pyridin-3-yl)-3-fluorophenyl)-6-cyano-5-(4-fluorophenyl)-1-cyclopropyl-4-oxo-1,4-dihydropyridine-3-carboxamide]: the 50% inhibitory concentration (IC50) stood at 208 nM.
The figure for `COc1cc2nccc(Oc3ccc(NC(=O)c4cn(C)c(C#N)c(-c5ccc(F)cc5)c4=O)cc3F)c2cc1OC` [Example 21, 6-cyano-N-(4-((6,7-dimethoxyquinolin-4-yl)oxy)-3-fluoro-phenyl)-5-(4-fluorophenyl)-1-methyl-4-oxo-1,4-dihydropyridine-3-carboxamide] is 109 nM; for `COc1cc2nccc(Oc3ccc(NC(=O)c4cn(C(C)C)c(C#N)c(-c5ccc(F)cc5)c4=O)cc3F)c2cc1OC` [Example 24, 6-cyano-N-(4-((6,7-dimethoxyquinolin-4-yl)oxy)-3-fluoro-phenyl)-5-(4-fluorophenyl)-1-isopropyl-4-oxo-1,4-dihydropyridine-3-carboxamide] it is 45 nM.
